These results are taken from patent US10265294B2, “Compositions and methods for treating epithelial cancer” (YALE UNIVERSITY, priority 2016, dated 2019).

Series [1] concerns caspase-9. Put plainly: Caspase Glo assay, caspase-9. Particulars: 0.245 μM; at 16 and 24 h post treatment. Format: cell-based, human. The method, then:
Total protein was extracted and measured as described in Kamsteeg, et al., 2003, Oncogene 22:2611-2620. Activity of caspase 3/7 and caspase 9 was quantified using Caspase Glo assay (Promega).
The activities of caspase-3/7 and caspase-9 were assessed at 2, 4, 6, 8, 16, and 24 hours post-treatment with TRX-E-002-1.

Series [2] concerns OCSCs (CD44+/MyD88+ ovarian cancer stem cells). Put plainly: OCSC growth, morphology, RFP+ cell count and Celltox cell death (kinetic live cell imaging). Format: cell-based, human. The method, then:
CD44+/MyD88+ ovarian cancer stem cell clones (OCSC1 and OCSC2) and CD44−/MyD88− ovarian cancer cells (OCC1 and OCC2) were isolated from either tumor tissue or ascites obtained from patients diagnosed with stage III/IV serous ovarian cancer and propagated (Alvero, et al., 2009, Cell Cycle 8:158-166; Chefetz, et al., 2013, Cell Cycle 12:511-521). The epithelial nature of the isolated cells was determined by immunostaining for Ck18. Purity of the cultures based on CD44 expression by flow cytometry and chemoresistance were routinely tested. Stable expression of nuclear-restricted red fluorescent (in OCSCs) or green fluorescent proteins (in OCCs) was performed by transduction using NUCLIGHT® Red or Green Lentivirus Reagent (Essen Bioscience, Ann Arbor, Mich.). Spheroids were formed from OCSCs by culturing in ultra-low attachment multi-well plates (Corning, Inc., Corning, N.Y.).
Effect of each compound on cell morphology, growth, and viability was assessed using a kinetic live cell imaging system (Incucyte, Essen Bioscience). Proliferation was calculated as previously described (Alvero, et al., 2011, Mol. Cancer Ther. 10:1385-1393) using metrics from either confluence or fluorescent count from nuclear-restricted RFP or GFP. Cell death was quantified; similarly CELLTOX® Green Cytotoxicity Assay (Promega, Madison, Wis.). IC50 was calculated as described using GraphPad Prism (GraphPad Software Inc., LaJolla, Calif.).
In vitro, conventional chemotherapeutic drugs had negligible effect on OCSC growth even in the μM range (FIG. 1B).
TRX-E-002 exists as a racemic mixture comprised of two enantiomers, enantiomer A (TRX-E-002-1) and enantiomer B (TRX-E-002-2). Thus, the enantiomers were separated and assessed separately. To distinguish between an analog's cytostatic or cytotoxic activity, OCSC clones that are stably transfected with nuclear-restricted RFP were used, which allows an accurate quantification of the number of cells and can be multiplexed with CELLTOX® assay to concomitantly measure the number of dead cells.

The conditions of series [3]: mouse, in vivo. From the text:
(§1) The Yale University Institutional Animal Care and Use Committee approved all in vivo studies described. Intra-peritoneal tumors were established in athymic nude mice using 4×10^6 mCherry+OCSC1-F2 ovarian cancer cells (Craveiro, et al., 2013, Cancer Med. 2:751-762). Injection of cancer cells is designated as day 0 and treatment commenced between day 3-5. Establishment of i.p. tumors was confirmed by live imaging (In-Vivo FX PRO, Bruker Corp., Billerica, Mass.) prior to treatment. TRX-E-002-1 was prepared in 20% Captisol or Dexsolve and administered daily at 50 mg/kg or 100 mg/kg. Paclitaxel was given at 12 mg/kg q3d and Cisplatin at 5 mg/kg weekly. All treatments were given i.p. Tumor growth was monitored q3d by live imaging and response to treatment was assessed using ROI area.
To determine activity against primary disease as well as to determine the maximum tolerated dose (MTD), a dose response study was performed. […] Animals however recovered from the distension upon cessation of treatment. […] Thus, the MTD was established at daily 100 mg/kg i.p. and this dose was employed for the succeeding studies employing combination treatment.

Series [4] concerns chemoresistant ovarian cancer stem cells. Put plainly: OCSC growth and morphology with TRX-E-002-1, AICAR or the combination. The format is cell-based, human. The method, then: The effect of each compound on cell growth was assessed using a kinetic live cell imagine system (Incucyte, Essen Bioscience). Proliferation was determined based on either confluence or fluorescent count from nuclear-restricted RFP or GFP. The IC50 values were calculated using GraphPad Prism (GraphPad Software Inc., LaJolla, Calif.). […]

The test system of series [5] is i.p. tumors of mCherry+OCSC1-F2 ovarian cancer cells. Put plainly: Recurrent disease xenograft, maintenance treatment after Paclitaxel. Format: in vivo.
Description: as §1
Although the standard of care for ovarian cancer patients (platinum plus taxane) is effective initially, most patients develop recurrent disease. Recurrence is the major cause of mortality in ovarian cancer patients, and thus approaches that can prevent recurrence are critical to improve patient survival. As described elsewhere herein, a unique advantage of the xenograft model is the recapitulation of recurrent disease that is typically observed in patients with ovarian cancer. […] Upon recurrence, tumors acquire resistance and become unresponsive to a second-round of Paclitaxel regimen, as observed in ovarian cancer patients. Thus, the model allows one to assess the value of novel compounds in preventing recurrence when given as maintenance treatment.
Thus mice were given Paclitaxel as initial treatment. […] After the 4th dose of Paclitaxel mice were re-randomized into the different maintenance groups. Here the maintenance protocol consisted of continued treatment with Paclitaxel, or maintenance with TRX-E-002-1 (100 mg/kg), or maintenance with Vehicle control.

`COc1cc(C2COc3c(ccc(O)c3C)C2c2ccc(O)cc2)cc(OC)c1O` (single isomer, unassigned) [TRX-E-002-1]: the caspase-9 activity entry in series [1] is given as “significant increase”. In addition, the “number of nuclear RFP+ cells” value in series [2] (RFP OCSC clones, TRX-E-002-1 beginning at the 0.245 μM dose, TRX-E-002-2 except for the very high dose of 10 μM) is on record as “significant decrease”. For the same molecule, the “number of Celltox-positive cells” value in series [2] (beginning at the 0.245 μM dose) is reported as “concomitant increase”. The “toxicity at high concentrations in animal studies” value in series [3] was “evidence of some potential toxicity”. For the same molecule, in series [3] (ip), the “maximum tolerated dose (MTD)” value was 100 mg/kg. Also, in series [4] (48 hours, AICAR at 0.2 mM), the “cell morphology / apoptotic cells” value is given as “only minimal effect”. Besides, the “effect on cell growth” value in series [4] (TRX-E-002-1 25 ng/ml, mono therapies or combination) is “minimal effect”. Further, the “tolerability of the maintenance schedule” value in series [5] (TRX-E-002-1 100 mg/kg daily i.p. maintenance) is given as “no signs of disease or morbidity requiring euthanasia”. The “tumor progression during maintenance treatment” value in series [5] (after 4th dose of Paclitaxel, TRX-E-002-1 100 mg/kg daily i.p. or continued Paclitaxel) is “effectively retarded tumor proliferation”. Further, the “tumor burden (ROI area) versus group maintained with Paclitaxel” value in series [5] (by day 35, TRX-E-002-1 100 mg/kg maintenance) is “significantly less”. Also, in series [5] (maintenance groups), the “gross examination of residual disease” value is recorded as “microscopic metastasis” and the “tumor weights at end point compared to control” value is reported as “significantly reduced”.
